The source of these data is patent US20210085798A1, “IMMUNITY LINKER MOLECULES AND THEIR USE IN THE TREATMENT OF INFECTIOUS DISEASES” (CENTAURI THERAPEUTICS LIMITED, priority 2018, published 2021).

Assay [1] relates to E. coli K12 (NCTC 10538). The class given is cell-based. To be noted: 40 μM Polymyxin B, anti-Gal IgM M86 25 μg/mL, MFI (FITC) over vehicle control. How it is done:
The assays were carried out in polystyrene 96-well U bottom plates (Costar). […] The samples were incubated for 1 hour at room temperature shaking at 450 rpm. […] Data from all samples were analysed using Kaluza software (Beckman Coulter).

Assay [2] concerns P. aeruginosa (ATCC 27853). Briefly: Flow cytometric antibody recruitment assay using anti-Gal IgM antibody M86, P. aeruginosa. The format is cell-based. To be noted: anti-Gal IgM M86 40 μg/mL, MFI (FITC) over vehicle control. How it is done: Flow Cytometric Antibody Recruitment Assay Using an Anti-Galα1-3Galβ1-4GlcNAc (Anti-Gal) Antibody
A secondary fluorescently labelled anti-IgM antibody was used to detect the anti-Gal antibody binding.
The assays were carried out in polystyrene 96-well U bottom plates (Costar). Frozen stocks of P. aeruginosa (American Type Culture Collection, ATCC 27853) in mid-exponential phase were thawed, centrifuged and resuspended in LB broth, Miller (Fisher BP1426-500) at OD595=0.2. The bacteria were grown to mid-exponential phase (OD595=0.4), washed once with Hank's Balanced Salt Solution with calcium and magnesium (HBSS+/+) and then resuspended in HBSS+/+ at a bacterial OD595=0.6. […] After three final washes with 200 μL HBSS+/+, the bacteria were resuspended in 200 μL HBSS+/+ and evaluated for anti-Gal antibody binding on a Cytoflex flow cytometer (Beckman Coulter). 50,000 counts of bacterial particles were sampled and the median fluorescent shift was recorded in the FITC-A channel. Data from all samples were analysed using Kaluza software (Beckman Coulter). […] The fold shift over background was calculated by dividing the Median Fluorescent Intensity (MFI) obtained in the presence of 20 μM of the Example compounds by the MFI value obtained in the vehicle controls, i.e., the absence of Examples. […] The shift in fluorescence intensity (FITC) occurs due to the binding event at each end of the molecule.

For the substance Polymyxin B, in assay [1], the “IgM Recruitment (Average fold change)” value came out at 4 fold change. In addition, the “IgM Recruitment (20 μM, Average fold change)” value in assay [2] is 1 fold change.
